Source: US10668080B2, “Phosphaplatin compounds as therapeutic agents for treatment of bone or blood cancers” (Phosplatin Therapeutics LLC, priority 2017, dated 2020)

What was measured:
de novo Vk*MYC mice = experiment: Multiple myeloma mouse model, de novo Vk*MYC mice, M-spike levels; assay type: in vivo
Method: (§1) The trans-pyrodach-2 compound is tested on the multiple myeloma mouse model, in particular Vk*MYC mice, which has been reported to be a faithful preclinical model that predicts the clinical activity of drugs in untreated and relapsed MM (Chesi, M., et al., Cancer Cell, 2008, 23, 167-180; Chesi, M., et al., Blood, 2012, 120(2): 376-385). Additionally, the trans-pyrodach-2 compound was tested in mice engrafted with the more aggressive bortezomib resistant Vk12598, and in the multidrug resistant Vk12653 lines, both of which were generated from Vk*MYC mice.
De novo Vk*MYC mice were aged to one year or longer, and M-spike levels were monitored. After the concentrations of the predominant M-spike reached levels of between about 10 and 70 g/L (estimated by densitometry, comparing M-spike to albumin), mice were candidates for starting drug treatment. Mice brought onto the study were dosed either twice weekly (n=2) or thrice (n=1) weekly at a concentration of 100 or 67 mg/kg (R,R)-pyrodach-2, respectively, administered via IP injection after preparation in a phosphate buffer solution. M-spike levels were measured weekly, and post-treatment measurements were compared and normalized to the pre-treatment baseline measurement. Dosing was halted after two weeks of treatment.

Vk12598-engrafted mice = experiment: Mice engrafted with bortezomib resistant Vk12598 line, survival; assay type: in vivo; conditions: 62.5 mg/kg IP twice a week for two weeks; for survival: versus vehicle control (all died by 21 days)
Method: as §1
(§2) Additionally, mice were engrafted with the Vk12598 transplantable line and received vehicle (n=11) or (R,R)-pyrodach-2 at a concentration of 62.5 mg/kg (n=12). Mice engrafted with the Vk12653 transplantable line were likewise treated with vehicle (n=10) or (R,R)-pyrodach-2 at 62.5 mg/kg (n=10). Both Vk12598 and Vk12653 engrafted mice were treated twice a week for two weeks via IP injection and monitored via survival and M-spike levels, respectively.

Vk12653-engrafted mice = experiment: Mice engrafted with multidrug resistant Vk12653 line, M-spike levels; assay type: in vivo; conditions: 62.5 mg/kg IP twice a week for two weeks
Method: as §1, §2

[1] = LA-ICP-MS imaging, distribution and quantification of platinum in mouse whole-body sections; assay type: in vivo, CD-1 mice; conditions: (R,R)-pyrodach-2 or derived Pt; treated mice
Method: Five CD-1 mice were dosed with (R,R)-pyrodach-2, intravenous (IV), at a concentration of 90 mg/kg, and one additional mouse was dosed with vehicle (phosphate buffer). After dosing, the (R,R)-pyrodach-2 treated mice were euthanized at different time points (45 min, 3 hr, 12 hr, 24 hr, and 72 hr), and the control mouse was euthanized at 45 minutes post dosing. Subsequently, carcasses were snap frozen at −70° C. Slides of full body sagittal plane cross sections were prepared for the control, 45 min, and 24 hr mice. Laser Ablation Inductively Coupled Plasma Mass Spectrometry (LA-ICP-MS) was then used to scan the slides for the concentration of Pt (an atomic component of (R,R)-pyrodach-2) across the entire full body cross sections. Additional slides were prepared from adjacent positions and hematoxylin & eosin (H&E) stained to map the Pt signal to different organs and tissues.
To detect the Platinum element (Pt) by LA-ICP-MS imaging into mouse whole-body sections at 150 μm spatial resolution covering the entire sections in the different section planes for the animals: Treated 45 min, Treated 24 h and Control 45 min (3 sectioning levels per animal).
The mice were sectioned at 20 μm thickness in 3 different section planes with a cryostat and mounted onto ITO glass slides. […]

[2] = tested on: cancerous cell lines, including leukemia and multiple myeloma cell lines resistant to lenalidomide, dexamethasone, and/or bortezomib; experiment: In vitro experiments on several cancerous cell lines; assay type: cell-based; conditions: several different cancerous cell lines
From the text: Thus, these bone tissues are exposed to (R,R)-pyrodach-2 (or derived Pt) at concentrations much higher than what is normally needed to induce cancer cell death.

[3] = tested on: metastatic castration resistant prostate cancer (mCRPC); experiment: Phase I study, decline in serum alkaline phosphatase in patient with mCRPC; assay type: in vivo, human; conditions: 250 mg/m^2 on days 1, 8, 15 of 28 day cycle
Method: In an ongoing phase I solid tumor dose escalation study, R,R-pyrodach-2 (PT-112) was given to a patient with mCRPC at a dose of 250 mg/m^2, dosed on days 1, 8, and 15 of a 28 day cycle. The patient enrolled in the study with elevated serum alkaline phosphatase levels, a sign of metastatic bone disease.
Upon treatment start, the patient experienced a rapid decline in serum alkaline phosphatase levels, a sign of anticancer drug activity at cancerous bone lesions. These measurements were fractionated to validate the proportion of the result emanating from bone (vs. liver). The bone proportion represented the vast majority of the result, validating the relationship to the metastatic bone disease in this patient.

[4] = Phase I solid tumor dose escalation study, safety; assay type: in vivo, human; conditions: phase I trial; MTD yet to be determined
Method: In an ongoing phase I solid tumor dose escalation study, R,R-pyrodach-2 (PT-112) was given to a patient with mBCC at a dose of 150 mg/m^2, dosed on days 1, 8, and 15 of a 28 day cycle.

Which “results compared with approved MM SoC agents” value (de novo Vk*MYC mice; M-spike response in Vk*MYC model) does the source give for O=P1(O)OP(=O)(O)[O][Pt]2([NH][C@@H]3CCCC[C@H]3[NH]2)[O]1 (stereo partly drawn) [(R,R)-pyrodach-2, trans-(R,R)-1,2-cyclohexanediamine-(dihydrogenpyrophosphato) platinum(II)] here?
Its value is “comparable or superior”.

What about the tolerability (de novo Vk*MYC mice; given twice or thrice weekly, Vk*MYC mouse model) of the same molecule?
Its tolerability is “well tolerated”.

And the complete responses (Vk12598-engrafted mice)?
The complete responses was “durable, complete response lasting over six months”.

And the survival (Vk12598-engrafted mice)?
Its survival is “significant increases in survival”.

And the survival (Vk12598-engrafted mice; listed as (R,R)-Pyrodach-2)?
The survival was “increased survival”.

What about the “M-spike levels in comparison to vehicle control” value (Vk12653-engrafted mice) of the same molecule?
Its value is “statistically significant reduction”.

And the “M-spike levels in comparison to vehicle control” value (Vk12653-engrafted mice; listed as (R,R)-Pyrodach-2)?
Its value is “repression of M-spike level elevations”.

And the “distribution to bone compartments” value [1]?
Its value is “clearly concentrates in bone compartments at very high concentrations over a long period of time”.

And the “concentrations sufficient to kill cancer cells” value [2]?
Its value is “low micromolar”.

What about the “serum alkaline phosphatase levels” value [3] of the same molecule?
Its value is “rapid decline”.

What about the “highest dose deemed to be safe” value [4] of the same molecule?
The value was 360 mg/m^2.
